The results in this text go back to PMC12064818, “A general assay platform to study protein pharmacology using ligand-dependent structural dynamics” (Nature Communications, 2025).

One assay concerns the target T1, NLuc (Oplophorus gracilirostris, UniProt Q9GV45, A31E/A60N/A81I/F95D/I117V/K70R/L54V/L99Q/M102K/N193R/P142E/Q151K/Q38R/Q45L/V71I/Y165I).
T1 construct: His tag (inferred from IMAC purification); made in house; host or cells: E. coli
Type of assay: biochemical. The conditions noted are these: - ATP. Summed up: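 Luminescence was read 10 min after Nano-Glo reagent addition. Enzyme was 1 nM NLuc in PBS/0.05% IGEPAL buffer, with or without ATP.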

A further assay deals with P. pyralis FLuc (Photinus pyralis, UniProt P08659). Kind of assay: FLuc enzymatic luminescence assay, P. pyralis FLuc. Type of assay: biochemical. As to conditions: FLuc enzymatic assay, Clade S follow-up; for IC50: read-out: IC50 or SDR50 (mM) FLuc E. Summed up: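 Runs with and without 10 µM ATP: compounds were pre-incubated with FLuc (1–10 nM, PBS pH 7.4) at ambient temperature, light-protected, for 30–60 min. Luminescence was imaged 5 min after adding 10 µM D-luciferin (final). Inhibition was scaled between DMSO neutral and no-enzyme controls.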
P. pyralis FLuc, sequence (P08659 whole entry): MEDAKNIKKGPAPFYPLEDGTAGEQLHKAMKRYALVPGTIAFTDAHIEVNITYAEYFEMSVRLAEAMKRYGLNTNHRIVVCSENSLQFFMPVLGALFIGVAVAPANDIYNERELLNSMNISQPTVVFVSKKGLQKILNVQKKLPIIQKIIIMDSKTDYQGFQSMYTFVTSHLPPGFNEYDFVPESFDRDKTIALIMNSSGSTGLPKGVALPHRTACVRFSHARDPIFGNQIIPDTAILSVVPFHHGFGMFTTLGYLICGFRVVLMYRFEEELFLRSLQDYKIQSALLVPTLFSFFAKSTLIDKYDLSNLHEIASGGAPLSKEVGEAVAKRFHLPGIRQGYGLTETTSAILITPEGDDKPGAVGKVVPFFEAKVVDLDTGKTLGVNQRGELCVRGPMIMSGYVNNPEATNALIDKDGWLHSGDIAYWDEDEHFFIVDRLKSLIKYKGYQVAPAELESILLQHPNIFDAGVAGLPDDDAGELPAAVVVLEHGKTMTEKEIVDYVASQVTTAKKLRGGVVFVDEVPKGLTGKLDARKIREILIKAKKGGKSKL

In assay [1] the target is FLuc-C-NLuc (firefly luciferase) (Photinus pyralis, UniProt P08659, form not given/L550V). Kind of assay: SDR assay, FLuc-C-NLuc. The conditions noted are these: - ATP.
FLuc-C-NLuc (firefly luciferase), sequence (P08659 2-550 L550V, form open): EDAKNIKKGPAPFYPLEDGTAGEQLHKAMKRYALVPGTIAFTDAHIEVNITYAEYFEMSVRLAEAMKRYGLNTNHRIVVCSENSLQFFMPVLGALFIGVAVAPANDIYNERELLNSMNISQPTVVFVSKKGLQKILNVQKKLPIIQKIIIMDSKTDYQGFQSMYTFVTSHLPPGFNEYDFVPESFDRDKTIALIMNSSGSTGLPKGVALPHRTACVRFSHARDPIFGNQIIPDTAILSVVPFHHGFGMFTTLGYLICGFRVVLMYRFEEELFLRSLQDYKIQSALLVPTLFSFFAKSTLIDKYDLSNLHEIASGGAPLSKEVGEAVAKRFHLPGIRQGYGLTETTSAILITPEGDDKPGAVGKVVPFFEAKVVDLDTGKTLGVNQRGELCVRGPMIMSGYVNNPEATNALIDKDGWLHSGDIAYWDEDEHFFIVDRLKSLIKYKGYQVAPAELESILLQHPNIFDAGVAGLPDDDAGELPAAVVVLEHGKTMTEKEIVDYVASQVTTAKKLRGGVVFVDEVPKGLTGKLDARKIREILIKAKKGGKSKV
Assay [2] concerns the target FLuc-C-HiBiT (firefly luciferase) (Photinus pyralis, UniProt P08659, form not given/L550V). Kind of assay: SDR assay, FLuc-C-HiBiT. The conditions noted are these: SDR max. response, clade S. (In general: HiBiT is a short tag that completes a luciferase, so light tracks the accessible tagged protein.)

For orientation: IC50 means the midpoint of a concentration-inhibition curve.

T1 sequence (Q9GV45 other isoform, or with tags, fused parts or gaps with the stated changes): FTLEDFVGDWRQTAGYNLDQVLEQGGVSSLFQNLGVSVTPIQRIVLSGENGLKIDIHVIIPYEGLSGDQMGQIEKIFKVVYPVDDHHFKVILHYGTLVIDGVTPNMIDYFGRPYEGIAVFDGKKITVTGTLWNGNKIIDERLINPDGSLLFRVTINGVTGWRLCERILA
FLuc-C-HiBiT (firefly luciferase), sequence (P08659 2-550 L550V, form open): as the sequence (P08659 2-550 L550V, form open) above

As for `CC1CCC(NC(=O)C2CCN(C(=O)c3ncn4c3COC(c3ccc(Cl)cc3)C4)CC2)CC1` (centres unmarked) [NCGC00449845-01], the “Efficacy (%) NLuc (- ATP)” value on NLuc is on record as 0.00%. For the same compound, the “Efficacy (%) FLuc E” value at P. pyralis FLuc is 0.00%. Besides, the “Efficacy (%) FLuc-C-NLuc SDR (-ATP)” value in assay [1] came out at 0.00%. Moreover, in assay [2], the “% Activity (max response, + ATP)” value worked out at 0.00% and the “% Activity (max response, - ATP)” value was found to be 0.00%.
As to `O=C(NC1CCCCCC1)C1CCN(C(=O)c2ncn3c2COC(c2ccc(Cl)cc2)C3)CC1` (centres unmarked) [NCGC00449846-01], the “Efficacy (%) NLuc (- ATP)” value on NLuc is 0.00%. The “Efficacy (%) FLuc E” value on P. pyralis FLuc is on record as -16.55%. Also, the “Efficacy (%) FLuc-C-NLuc SDR (-ATP)” value in assay [1] is listed as 0.00%. For the same compound, in assay [2], the “% Activity (max response, + ATP)” value was 13.50% and the “% Activity (max response, - ATP)” value came to 0.00%.
For `O=C(NC1CCCCCCC1)C1CCN(C(=O)c2ncn3c2COC(c2ccc(Cl)cc2)C3)CC1` (centres unmarked) [NCGC00449847-01], on NLuc, the “Efficacy (%) NLuc (- ATP)” value is 0.00%. The “Efficacy (%) FLuc E” value on P. pyralis FLuc is -17.30%. Moreover, the “Efficacy (%) FLuc-C-NLuc SDR (-ATP)” value in assay [1] amounted to 0.00%. In assay [2], the “% Activity (max response, + ATP)” value was found to be 0.00% and the “% Activity (max response, - ATP)” value is 0.00%.
Consider `O=C(NCCC1=CCCCC1)C1CCN(C(=O)c2ncn3c2COC(c2ccc(Cl)cc2)C3)CC1` (centres unmarked) [NCGC00449848-01], for which the “Efficacy (%) NLuc (- ATP)” value at NLuc was 0.00%. For the same compound, at P. pyralis FLuc, the “Efficacy (%) FLuc E” value is given as -32.57%, the “pIC50 or pSDR50 FLuc E” value is reported as 4.91 and the IC50 was found to be 0.0124 mM. The “Efficacy (%) FLuc-C-NLuc SDR (-ATP)” value in assay [1] came out at 0.00%. In addition, in assay [2], the “% Activity (max response, + ATP)” value was 23.50% and the “% Activity (max response, - ATP)” value is recorded as -6.50%.
In the case of `O=C(NCc1ccccc1)C1CCN(C(=O)c2ncn3c2COC(c2ccc(Cl)cc2)C3)CC1` (centres unmarked) [NCGC00449849-01], the “Efficacy (%) NLuc (- ATP)” value on NLuc was found to be 0.00%. For the same compound, on P. pyralis FLuc, the “Efficacy (%) FLuc E” value was -35.02%, the “pIC50 or pSDR50 FLuc E” value stood at 4.91 and the IC50 was 0.0124 mM. In addition, the “Efficacy (%) FLuc-C-NLuc SDR (-ATP)” value in assay [1] was determined as 0.00%. For the same compound, in assay [2], the “% Activity (max response, + ATP)” value stood at 28.50% and the “% Activity (max response, - ATP)” value is on record as 0.00%.
Take `Cc1ccc(CNC(=O)C2CCN(C(=O)c3ncn4c3COC(c3ccc(Cl)cc3)C4)CC2)cc1` (centres unmarked) [NCGC00449850-01]: at NLuc, the “Efficacy (%) NLuc (- ATP)” value is listed as 0.00%. For the same compound, at P. pyralis FLuc, the “Efficacy (%) FLuc E” value is listed as -21.67%. The “Efficacy (%) FLuc-C-NLuc SDR (-ATP)” value in assay [1] came out at 0.00%. Further, in assay [2], the “% Activity (max response, + ATP)” value is on record as 22.50% and the “% Activity (max response, - ATP)” value worked out at 0.00%.
Consider `O=C(NCc1ccccc1F)C1CCN(C(=O)c2ncn3c2COC(c2ccc(Cl)cc2)C3)CC1` (centres unmarked) [NCGC00449851-01], for which, at NLuc, the “Efficacy (%) NLuc (- ATP)” value stood at 0.00%. In addition, at P. pyralis FLuc, the “Efficacy (%) FLuc E” value is listed as -40.26%, the “pIC50 or pSDR50 FLuc E” value is given as 4.91 and the IC50 was 0.0124 mM. In addition, the “Efficacy (%) FLuc-C-NLuc SDR (-ATP)” value in assay [1] amounted to 0.00%. Further, in assay [2], the “% Activity (max response, + ATP)” value came to 18.50% and the “% Activity (max response, - ATP)” value was determined as 0.00%.
Consider `O=C(NCc1ccc(F)cc1)C1CCN(C(=O)c2ncn3c2COC(c2ccc(Cl)cc2)C3)CC1` (centres unmarked) [NCGC00449852-01], for which the “Efficacy (%) NLuc (- ATP)” value at NLuc is on record as 0.00%. At P. pyralis FLuc, the “Efficacy (%) FLuc E” value is given as -25.63%, the “pIC50 or pSDR50 FLuc E” value is recorded as 4.86 and the IC50 came out at 0.0139 mM. Further, the “Efficacy (%) FLuc-C-NLuc SDR (-ATP)” value in assay [1] is 0.00%. In assay [2], the “% Activity (max response, + ATP)” value worked out at 32.50% and the “% Activity (max response, - ATP)” value turned out to be 0.00%.
In the case of `CC(NC(=O)C1CCN(C(=O)c2ncn3c2COC(c2ccc(Cl)cc2)C3)CC1)c1ccccc1` (centres unmarked) [NCGC00449853-01], at NLuc, the “Efficacy (%) NLuc (- ATP)” value is on record as 0.00%. Further, the “Efficacy (%) FLuc E” value at P. pyralis FLuc is -16.52%. Besides, the “Efficacy (%) FLuc-C-NLuc SDR (-ATP)” value in assay [1] turned out to be 0.00%. In assay [2], the “% Activity (max response, + ATP)” value was 0.00% and the “% Activity (max response, - ATP)” value is on record as 0.00%.
For `O=C(NCCc1ccccc1)C1CCN(C(=O)c2ncn3c2COC(c2ccc(Cl)cc2)C3)CC1` (centres unmarked) [NCGC00449854-01], the “Efficacy (%) NLuc (- ATP)” value at NLuc came out at 0.00%. The “Efficacy (%) FLuc E” value at P. pyralis FLuc is listed as -25.47%. Also, the “Efficacy (%) FLuc-C-NLuc SDR (-ATP)” value in assay [1] was 0.00%. Further, in assay [2], the “% Activity (max response, + ATP)” value was 0.00% and the “% Activity (max response, - ATP)” value is listed as 0.00%.
Consider `O=C(NCC1CCCCC1)C1CCN(C(=O)c2ncn3c2COC(c2ccc(Cl)cc2)C3)CC1` (centres unmarked) [NCGC00449855-01], for which the “Efficacy (%) NLuc (- ATP)” value on NLuc is given as 0.00%. Moreover, the “Efficacy (%) FLuc E” value on P. pyralis FLuc was -13.13%. In addition, in assay [1], the “Efficacy (%) FLuc-C-NLuc SDR (-ATP)” value is 0.00%. Moreover, in assay [2], the “% Activity (max response, + ATP)” value is listed as 16.00% and the “% Activity (max response, - ATP)” value worked out at 0.00%.
As for `COc1ccc(C2Cn3cnc(C(=O)N4CCC(C(=O)NC(C)C)CC4)c3CO2)cc1` (centres unmarked) [NCGC00449857-01], the “Efficacy (%) NLuc (- ATP)” value on NLuc is listed as 0.00%. The “Efficacy (%) FLuc E” value on P. pyralis FLuc is listed as -19.61%. In addition, the “Efficacy (%) FLuc-C-NLuc SDR (-ATP)” value in assay [1] is 0.00%. In assay [2], the “% Activity (max response, + ATP)” value turned out to be 13.32% and the “% Activity (max response, - ATP)” value was 0.00%.
With `COc1ccc(C2Cn3cnc(C(=O)N4CCC(C(=O)NCC(C)C)CC4)c3CO2)cc1` (centres unmarked) [NCGC00449858-01], the “Efficacy (%) NLuc (- ATP)” value on NLuc turned out to be 0.00%. The “Efficacy (%) FLuc E” value at P. pyralis FLuc is reported as -13.26%. Also, the “Efficacy (%) FLuc-C-NLuc SDR (-ATP)” value in assay [1] is 0.00%. Further, in assay [2], the “% Activity (max response, + ATP)” value is 14.32% and the “% Activity (max response, - ATP)” value worked out at 0.00%.
As for `COc1ccc(C2Cn3cnc(C(=O)N4CCC(C(=O)NC5CCCC5)CC4)c3CO2)cc1` (centres unmarked) [NCGC00449859-01], the “Efficacy (%) NLuc (- ATP)” value on NLuc turned out to be 0.00%. In addition, the “Efficacy (%) FLuc E” value on P. pyralis FLuc was 0.00%. Besides, the “Efficacy (%) FLuc-C-NLuc SDR (-ATP)” value in assay [1] came out at 0.00%. In addition, in assay [2], the “% Activity (max response, + ATP)” value came out at 0.00% and the “% Activity (max response, - ATP)” value turned out to be 0.00%.
In the case of `COc1ccc(C2Cn3cnc(C(=O)N4CCC(C(=O)NC5CCCCC5)CC4)c3CO2)cc1` (centres unmarked) [NCGC00449860-01], on NLuc, the “Efficacy (%) NLuc (- ATP)” value came to 0.00%. Further, on P. pyralis FLuc, the “Efficacy (%) FLuc E” value worked out at 0.00%. Besides, the “Efficacy (%) FLuc-C-NLuc SDR (-ATP)” value in assay [1] came to 0.00%. Moreover, in assay [2], the “% Activity (max response, + ATP)” value was determined as 0.00% and the “% Activity (max response, - ATP)” value worked out at 0.00%.
Consider `COc1ccc(C2Cn3cnc(C(=O)N4CCC(C(=O)NC5CCC(C)CC5)CC4)c3CO2)cc1` (centres unmarked) [NCGC00449861-01], for which the “Efficacy (%) NLuc (- ATP)” value on NLuc is on record as 0.00%. The “Efficacy (%) FLuc E” value on P. pyralis FLuc worked out at 0.00%. The “Efficacy (%) FLuc-C-NLuc SDR (-ATP)” value in assay [1] is recorded as 0.00%. For the same compound, in assay [2], the “% Activity (max response, + ATP)” value is listed as 14.50% and the “% Activity (max response, - ATP)” value came out at 0.00%.
For the compound `COc1ccc(C2Cn3cnc(C(=O)N4CCC(C(=O)NC5CCCCCC5)CC4)c3CO2)cc1` (centres unmarked) [NCGC00449862-01], the “Efficacy (%) NLuc (- ATP)” value on NLuc is -12.50%. For the same compound, at P. pyralis FLuc, the “Efficacy (%) FLuc E” value is 0.00%. For the same compound, the “Efficacy (%) FLuc-C-NLuc SDR (-ATP)” value in assay [1] turned out to be 0.00%. For the same compound, in assay [2], the “% Activity (max response, + ATP)” value came to 0.00% and the “% Activity (max response, - ATP)” value is 0.00%.
As to `CCCCNC(=O)C1CCN(C(=O)c2ncn3c2COC(c2ccc(OC)cc2)C3)CC1` (centres unmarked) [NCGC00449864-01], the “Efficacy (%) NLuc (- ATP)” value at NLuc was found to be 0.00%. Further, on P. pyralis FLuc, the “Efficacy (%) FLuc E” value is -10.96%. The “Efficacy (%) FLuc-C-NLuc SDR (-ATP)” value in assay [1] is 0.00%. Moreover, in assay [2], the “% Activity (max response, + ATP)” value amounted to 0.00% and the “% Activity (max response, - ATP)” value worked out at 0.00%.
